“Also recorded” adds a separate entry of the source.
How the values were obtained:
[1] = test system: cell cycle in zebrafish embryos; experiment: Cell cycle profiles in zebrafish embryos (propidium iodide, flow cytometry); type: in vivo; details: zebrafish embryos incubated from 4 hours post fertilization overnight, DNA content by flow cytometry
Experimental: FIG. 2 is a group of cell cycle profiles of active compounds tested in 24 hour zebrafish embryos. Specifically, embryos incubated with E3 fishwater (panel A), hydroxyurea (panel B), compound C4 (panel C), and compound C3 (panel D) are shown. After overnight incubation, single cell solution of embryos was prepared and incubated with propidium iodide. Samples were then subjected to flow cytometry to determine DNA content (X axis). Small arrowheads below the X-axis are placed beneath the diploid (G1) n=2 peak, and the tetraploid (G2/M) n=4 peaks. Cells between these two peaks are in S phase. Cells to the left of the G1 peak (sub G1 peak) have lost chromosomes (n<2), and are presumably dying (indicated as % debris in the right hand legend of each panel). Relative numbers of cells (Y-axis) in the different phases of the cell cycle are given on the right side of each panel.
All of these compounds were tested for effects on the cell cycle in zebrafish embryos. Zebrafish embryos were incubated at 4 hours post fertilization with compounds or controls. After overnight incubation in compounds, single cell solution of embryos was prepared and incubated with propidium iodide. Samples were then subjected to flow cytometry to determine DNA content. […] Examples are depicted in FIG. 2.
In FIG. 2, embryos incubated with (A) E3 fishwater, (B) hydroxyurea, (C) compound C4, and (D) C3 are shown. Diploid (G1, n=2) and tetraploid (G2/M, n=4) peaks are identified on the X-axis. Small arrowheads below the X-axis are placed beneath the dipoid (G1) n=2 peak, and the tetraploid (G2/M) n=4 peaks. Cells between these two peaks are in S phase. Cells to the left of the G1 peak (sub G1 peak) have lost chromosomes (n<2) and are presumably dying (indicated as % debris in the right hand legend of each panel). Relative numbers of cells (Y axis) in the different phases of the cell cycle are given on the right side of each panel.

[2] = test system: HEK293 human kidney cell line; experiment: Cell viability, kidney cell line; type: cell-based
Experimental: Experiments described in this document are carried out in zebrafish embryos (cell cycle experiments) and lck-GFP transgenic larvae (5 to 8 days after fertilization), and in human cell lines (Jurkat is a human T cell leukemia, RS4; 11 is a human B cell leukemia and HEK293 is a human kidney cell line).
Cell culture experiments: Cells were incubated at 37° C. in 75 mL flasks in RPMI containing 10% FBS, 5 mL Penicillin/Streptomycin (100×) in a total volume of […]. Cells were counted using a hemocytometer, and 25,000 cells were plated in each well of a 96-well plate. Compounds and controls were added and cells were harvested after a 48 hr incubation period.
To assess effects of compounds, cell viability was measured. For this, cells were incubated with MTT [3-(4,5-[…])-2,5 diphenyl Tetrazolium Bromid], a compound that is transformed into a formazan crystal by mitochondrial dehydrogenases. After crystal solubilization with DMSO a blue color (that is proportional to the amount of crystal formed) can be measured. Formazan solution absorbs light at 550-570 nm but not at 620-650 nm. 620-650 nm absorbency results from cell debris and well imperfections. Final optical density (OD) obtained from formazan formation was calculated OD=L1-L2 (background).
Next, the nine compounds were tested for activity against the human T-ALL line: Jurkat and the human B-ALL line RS 4; 11. […]

[3] = test system: T cells from the thymus of lck::eGFP transgenic zebrafish; experiment: Screen for T cell ablation in lck::eGFP transgenic zebrafish larvae; type: in vivo
Experimental: FIG. 4 is a schematic of the experimental set-up of drug screen using DIVERSet small molecule library and lck-GFP transgenic zebrafish. Beginning at the top of the figure, three day 6 pf transgenic larvae are arrayed in 300 μL of E3 embryos water into each of the 96 wells of a round bottom tissue culture plate (except G1, H1, G12, H12). Controls are added in triplicate: DMSO (A1-C1), E3 (D1-F1), dexamethasone 25 μM (A12-C12), and methanol (D12-F12). Then, five compounds from the DIVERSet library are added to each well at a final concentration of 5 μM. Plates are incubated at […] for 48 hours, and are inspected by fluorescence microscopy at 24 and 48 hours. […] Compounds from wells identified as active are tested individually in triplicates. One of the five compounds that is active in all three wells is identified and is worked up further (left side).
To extend the versatility of the system, a transgenic line of zebrafish was generated; in this line all T cells are tagged with green fluorescent protein (GFP). GFP is driven by the T cell specific p56^lck promoter (Langenau et al., Proc Natl Acad Sci USA 101:7369-7374, 2004).
Based on the above observation that zebrafish T cells can be killed by the small molecule dexamethasone (MW 392) (Langenau et al., Proc Natl Acad Sci USA 101:7369-7374, 2004) a screen for novel compounds with a similar T cell ablative profile was performed. […]

[4] = 14-day twice daily gavage in healthy CD-1 male mice; type: in vivo; details: gavage 50, 15 and 5 mg/kg twice per day, 14 days
Experimental: Healthy CD-1 male mice were also gavage-fed with compound 3 at concentrations of 50 mg/kg, 15 mg/kg and 5 mg/kg twice per day. […] Hematological, biochemical, immunological and pathological specimen are currently being evaluated.

C(=NNc1cccc2cccnc12)c1c[nH]c2ccccc12 [Compound C3, 1H-indole-3-carbaldehyde quinolin-8-ylhydrazone]
Effect on the cell cycle [1]: lack of cell cycle effects | Effect on the cell cycle ([1]; listed as 3): did not have any appreciable effect on the cell cycle; also recorded: does not affect the cell cycle | Effect on kidney cell line (viability) [2]: neither the kidney cell line, nor the B-ALL were affected | Activity in vivo (active concentration) [3]: 3 µM | Adverse effects [4]: No adverse effects were observed

Source: patent publication US8039505B2, “Compounds for modulating T-cells” (University of Utah Research Foundation, priority 2007, dated 2011)
